Data taken from patent US20250215029A1 (Recludix Pharma, Inc., priority 2022, published 2025).

target: T1, pY705-STAT3 in PBMC (Homo sapiens, UniProt P40763); experiment: MSD-pSTAT-PBMC Assay (pSTAT3, IL-6 stimulated); assay type: cell-based; conditions: PBMC, compound 3 hrs, then 10 ng/mL IL-6 for 10 min; Table 115; read-out: STAT3
T1 construct: Cryopreserved Peripheral Blood Mononuclear Cells (PBMC) are from AllCells; host or cells: cryopreserved PBMC
Description: Cryopreserved Peripheral Blood Mononuclear Cells (PBMC) are from AllCells. Recombinant Human IL-4 and IL-6 are from Peprotech. Mouse monoclonal anti-STAT3 antibody, rabbit monoclonal anti-pY705-STAT3 antibody, rabbit monoclonal Anti-pY641-STAT6 antibody, and lysis buffer are from Cell Signaling Technology (CST). Mouse monoclonal anti-STAT6 antibody is from BioLegend. Assay plates, blocker, and anti-rabbit secondary antibody are from Meso Scale Discovery (MSD).
Cyropreserved PBMCs were thawed out and allowed to recover overnight in IMDM+10% heat-inactivated FBS prior to plating 50,000 (STAT3) or 25,000 (STAT6) cells per well in 96-well U-bottom tissue culture plates. Cells were treated with compound for 3 hrs, then stimulated with 10 ng/mL IL-6 (STAT3) or 1 ng/mL IL-4 (STAT6) for 10 min. Cells were then spun down and washed with ice-cold PBS prior to lysing the cell pellet with 1× lysis buffer (CST) with 1× HALT protease and phosphatase inhibitor cocktail (Thermo). Lysates were transferred to and incubated overnight at 4° C. with shaking in QuickPlex 96-well high bind assay plates (MSD) pre-coated overnight with 30 μL per well of 0.6 μg/mL mouse monoclonal anti-STAT3 antibody (STAT3) or 2 μg/mL mouse monoclonal anti-STAT6 antibody (STAT6) in 1× PBS, and pre-blocked for 1 hour with 3% Blocker-A (MSD). Captured protein in the assay plates were then washed and probed with 25 μL per well of […] rabbit monoclonal anti-pY705-STAT3 antibody (STAT3) or 0.18 μg/ml rabbit monoclonal Anti-pY641-STAT6 antibody (STAT6) in 1% Blocker-A for 1 hour at room temperature with shaking, then washed and probed with 25 ul per well of 1 ug/ml Sulfo-TAG Labeled Goat Anti-Rabbit Antibody (MSD) in 1% Blocker-A for 1 hour at room temperature with shaking. Assay plates were then washed and 150 μL of 1× Read Buffer-T (MSD) was added to each well prior to reading on an SQ120 MSD Plate Reader. Assay signal from each sample was subtracted by the signal from unstimulated control wells and normalized to DMSO control wells. IC50 values were calculated using Graph Pad Prism Dose-Response Nonlinear Regression with variable slope. For both pSTAT3 and pSTAT6 A=≤100 nM; B 100-1000 nM; C=>1000-3000 nM; D=>3 μM; and NT=Not Tested.

T1 sequence (P40763 whole entry): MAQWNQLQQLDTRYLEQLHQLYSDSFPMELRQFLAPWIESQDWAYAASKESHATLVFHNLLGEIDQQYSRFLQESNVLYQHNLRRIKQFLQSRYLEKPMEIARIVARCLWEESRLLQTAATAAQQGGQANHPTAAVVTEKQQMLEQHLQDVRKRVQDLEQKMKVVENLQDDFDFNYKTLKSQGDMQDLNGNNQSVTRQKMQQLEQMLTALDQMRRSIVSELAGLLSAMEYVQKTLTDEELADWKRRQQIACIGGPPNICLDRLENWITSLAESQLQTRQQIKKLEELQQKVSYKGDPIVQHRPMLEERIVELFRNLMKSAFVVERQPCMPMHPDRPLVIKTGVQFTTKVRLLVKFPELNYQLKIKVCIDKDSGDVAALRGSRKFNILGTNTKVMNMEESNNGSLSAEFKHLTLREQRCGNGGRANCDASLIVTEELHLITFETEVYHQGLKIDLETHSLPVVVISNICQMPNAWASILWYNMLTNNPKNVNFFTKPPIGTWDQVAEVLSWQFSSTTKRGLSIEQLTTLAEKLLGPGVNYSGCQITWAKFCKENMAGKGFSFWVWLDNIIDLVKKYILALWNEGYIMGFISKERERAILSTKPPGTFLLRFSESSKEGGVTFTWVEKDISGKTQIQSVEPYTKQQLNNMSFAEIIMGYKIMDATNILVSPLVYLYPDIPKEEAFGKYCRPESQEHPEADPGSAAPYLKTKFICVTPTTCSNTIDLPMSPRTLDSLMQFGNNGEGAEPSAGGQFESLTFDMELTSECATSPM

For `CC(C)OC(=O)[C@@H]1CCCN1P(=O)(Cc1ccc2sc(C(=O)N[C@H]3CCC[C@H]4CC[C@@H](C(=O)N5CC(c6cccnc6)C5)N4C3=O)cc2c1)Oc1ccccc1` (stereo partly drawn) [Compound 391, isopropyl (((2-(((3S,6S,9aS)-5-oxo-3-(3-(pyridin-3-yl)azetidine-1-carbonyl)octahydro-1H-pyrrolo[1,2-a]azepin-6-yl)carbamoyl)benzo [b]thiophen-5-yl)methyl)(phenoxy)phosphoryl)-L-prolinate], which IC50 is on record?
Its IC50 is 1000 to 3000 nM.

How did the IC50 turn out when `C[C@H](NP(=O)(Oc1ccccc1)C(F)c1ccc2sc(C(=O)N[C@H]3CCC[C@H]4CC[C@@H](C(=O)N5CC(c6cnccc6F)C5)N4C3=O)cc2c1)C(=O)OCCC(F)(F)F` (stereo partly drawn) [Compound 983, 3,3,3-trifluoropropyl ((fluoro(2-(((3S,6S,9aS)-3-(3-(4-fluoropyridin-3-yl)azetidine-1-carbonyl)-5-oxooctahydro-1H-pyrrolo[1,2-a]azepin-6-yl)carbamoyl)benzo [b]thiophen-5-yl)methyl)(phenoxy)phosphoryl)-L-alaninate] was run?
The IC50 was less than 100 nM.

`CCCOC(=O)[C@H](C)NP(=O)(Cc1ccc2sc(C(=O)N[C@H]3CCC[C@H]4CC[C@@H](C(=O)N5CC(c6cnccc6C6CC6)C5)N4C3=O)cc2c1)Oc1ccccc1` (stereo partly drawn) [Compound 267, propyl (((2-(((3S,6S,9aS)-3-(3-(4-cyclopropylpyridin-3-yl)azetidine-1-carbonyl)-5-oxooctahydro-1H-pyrrolo[1,2-a]azepin-6-yl)carbamoyl)benzo [b]thiophen-5-yl)methyl)(phenoxy)phosphoryl)-L-alaninate] was tested. Which IC50 did it give?
Its IC50 is less than 100 nM.

How did the IC50 turn out when `CCCOC(=O)[C@H](C)NP(=O)(Oc1ccccc1)[C@@H](F)c1ccc2sc(C(=O)N[C@H]3CCC[C@H]4CC[C@@H](C(=O)N5CC(c6cnccc6OCC)C5)N4C3=O)cc2c1` (stereo partly drawn) [Compound 494, propyl (((R)-(2-(((3S,6S,9aS)-3-(3-(4-ethoxypyridin-3-yl)azetidine-1-carbonyl)-5-oxooctahydro-1H-pyrrolo[1,2-a]azepin-6-yl)carbamoyl)benzo [b]thiophen-5-yl)fluoromethyl) (phenoxy)phosphoryl)-L-alaninate] was run?
The IC50 was less than 100 nM.

For `CCCOC(=O)[C@H](C)NP(=O)(Oc1ccccc1)C(F)c1ccc2sc(C(=O)N[C@H]3CCC[C@H]4CC[C@@H](C(=O)N5CC(c6cc(F)ccc6F)C5)N4C3=O)cc2c1` (stereo partly drawn) [Compound 986, propyl (((2-(((3S,6S,9aS)-3-(3-(2,5-difluorophenyl)azetidine-1-carbonyl)-5-oxooctahydro-1H-pyrrolo[1,2-a]azepin-6-yl)carbamoyl)benzo [b]thiophen-5-yl)fluoromethyl) (phenoxy)phosphoryl)-L-alaninate], which IC50 is on record?
Its IC50 is 1000 to 3000 nM.

How did the IC50 turn out when `COc1ccncc1C1CN(C(=O)[C@@H]2CC[C@@H]3CCC[C@H](NC(=O)c4cc5cc([C@@H](F)[P@](=O)(N[C@@H](C)C(=O)OCc6ccccc6)Oc6ccccc6)ccc5s4)C(=O)N32)C1` (single isomer, unassigned) [Compound 1054] was run?
Its IC50 is less than 100 nM.

Which IC50 does the source give for `CCCOC(=O)[C@H](C)NP(=O)(Oc1ccccc1)[C@H](F)c1ccc2sc(C(=O)N[C@H]3CCC[C@H]4CC[C@@H](C(=O)N5CC(c6cnccc6N6CC(C#N)C6)C5)N4C3=O)cc2c1` (stereo partly drawn) [Compound 1061, propyl (((S)-(2-(((3S,6S,9aS)-3-(3-(4-(3-cyanoazetidin-1-yl)pyridin-3-yl)azetidine-1-carbonyl)-5-oxooctahydro-1H-pyrrolo[1,2-a]azepin-6-yl)carbamoyl)benzo [b]thiophen-5-yl)fluoromethyl) (phenoxy)phosphoryl)-L-alaninate] here?
The IC50 was 100 to 1000 nM.

For `CCCOC(=O)[C@H](C)NP(=O)(Oc1ccccc1)C(F)c1ccc2sc(C(=O)N[C@H]3CCC[C@H]4CC[C@@H](C(=O)N5CC(c6cnccc6O)C5)N4C3=O)cc2c1` (stereo partly drawn) [Compound 974, propyl ((fluoro(2-(((3S,6S,9aS)-3-(3-(4-hydroxypyridin-3-yl)azetidine-1-carbonyl)-5-oxooctahydro-1H-pyrrolo[1,2-a]azepin-6-yl)carbamoyl)benzo [b]thiophen-5-yl)methyl)(phenoxy)phosphoryl)-L-alaninate], which IC50 is on record?
Its IC50 is 100 to 1000 nM.
